Test results reported in US6291677A, “Compounds having activity as inhibitors of cytochrome P450RAI” (Allergan Sales, Inc., priority 2000, dated 2001).

Columns and labels:
skin = details: humans; topical ATRA, oral 13-cis RA and etretinate; cited from earlier work
RARα = molecular target: T1, RARα (Homo sapiens, UniProt P10276); assay: ligand binding assay, RARα; details: read-out: Kd RAR α
T1 sequence (P10276 1-462): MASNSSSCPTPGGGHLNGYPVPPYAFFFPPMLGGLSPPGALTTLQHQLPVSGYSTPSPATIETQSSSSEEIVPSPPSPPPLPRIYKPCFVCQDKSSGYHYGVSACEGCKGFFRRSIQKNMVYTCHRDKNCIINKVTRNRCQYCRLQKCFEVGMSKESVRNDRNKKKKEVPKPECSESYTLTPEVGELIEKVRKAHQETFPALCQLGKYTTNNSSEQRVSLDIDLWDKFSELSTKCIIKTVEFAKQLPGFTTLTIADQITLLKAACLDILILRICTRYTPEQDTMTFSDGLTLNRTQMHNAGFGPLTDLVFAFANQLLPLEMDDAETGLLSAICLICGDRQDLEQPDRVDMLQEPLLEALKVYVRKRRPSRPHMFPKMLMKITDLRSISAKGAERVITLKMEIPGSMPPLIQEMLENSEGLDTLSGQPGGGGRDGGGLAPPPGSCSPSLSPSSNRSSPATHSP
Excerpt: Assays described below measure the ability of a compound to bind to, and/or activate various retinoid receptor subtypes. […] In the below described assays the ability of the compounds to bind to RARα, RARβ, RARγ,RXRα, RXRβ and RXRγ receptors, and the ability or inability of the compounds to activate transcription of a reporter gene through these receptor subtypes can be tested.

skin of hairless mice = assay: topical skin irritation test in hairless mice; type: in vivo, female hairless mice (Crl:SKH1-hrBR); details: once daily days 1 through 5, mean±SD
Excerpt: Mice were housed individually throughout the dosing period.
Doses are disclosed as nmol/25 g.
The grading scale used is as follows:
Values can range from 0-9.
Values can range from 0-8.

RARβ = assay: chimeric receptor transactivation assay, RARβ; type: cell-based; details: unit assumed
Excerpt: Assays described below measure the ability of a compound to bind to, and/or activate various retinoid receptor subtypes. When in these assays a compound binds to a given receptor subtype and activates the transcription of a reporter gene through that subtype, then the compound is considered an agonist of that receptor subtype. […] In the below described assays the ability of the compounds to bind to RARα, RARβ, RARγ,RXRα, RXRβ and RXRγ receptors, and the ability or inability of the compounds to activate transcription of a reporter gene through these receptor subtypes can be tested.
The results obtained in this assay are expressed in EC50 numbers, as they are also in the chimeric receptor transactivation assay. The results of ligand binding assay are expressed in Kd numbers.

P450RAI-1 = molecular target: T2, P450RAI-1 (Homo sapiens, UniProt O43174); assay: cell-based; details: intact HeLa, P450RAI-1 stably transfected, [3H]-RA, 3 hours at 37° C; read-out: P450RAI INHIBITION DATA INTACT HELA IC50
T2 sequence (O43174 1-497): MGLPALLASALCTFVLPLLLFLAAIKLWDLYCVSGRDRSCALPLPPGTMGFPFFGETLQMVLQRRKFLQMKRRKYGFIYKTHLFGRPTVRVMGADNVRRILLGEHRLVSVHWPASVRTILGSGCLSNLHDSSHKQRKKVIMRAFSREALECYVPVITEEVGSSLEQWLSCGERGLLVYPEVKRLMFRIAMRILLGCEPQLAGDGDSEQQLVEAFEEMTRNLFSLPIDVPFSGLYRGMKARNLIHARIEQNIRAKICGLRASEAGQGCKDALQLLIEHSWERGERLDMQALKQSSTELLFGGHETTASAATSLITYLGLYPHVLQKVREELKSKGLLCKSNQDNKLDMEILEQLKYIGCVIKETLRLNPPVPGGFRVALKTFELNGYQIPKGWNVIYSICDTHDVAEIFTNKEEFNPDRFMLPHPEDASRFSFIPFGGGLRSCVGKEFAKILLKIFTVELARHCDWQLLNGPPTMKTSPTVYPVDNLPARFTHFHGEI
Method: FIG. 1 is a schematic representation of the P450RAI cell based assay utilized to evaluate the ability of the compounds of the invention to inhibit the Cytochrome P450RAI enzyme.
P450RAI-1 Cell-Based Inhibitor Assay:
P450RAI-1 stably transfected HeLa cells are maintained in […] tissue culture dishes in Modified Eagle's Medium (MEM) containing 10% Fetal Bovine Serum (FBS) and 100 μg/ml hygromycin. Exponentially growing cells are harvested by incubating in trypsin. Cells are then washed with 1× Phosphate Buffered Saline (PBS) and plated in a 48-well plate at 5×10^5 cells in 0.2 ml MEM medium containing 10% FBS and 0.05 μCi [^3 H]-RA in the presence or absence of increasing concentrations of the test compounds. The compounds are diluted in 100% DMSO and then added in triplicate wells at either 10, 1 or 0.1 μM final concentration. As a positive control for RA metabolism inhibition, cells are also incubated with ketoconazole at 100, 10 and 1 μM. Cell are incubated for 3 hours at 37° C. […] The water soluble radioactivity is quantified using a β-scintillationcounter. IC50 values represent the concentration of inhibitor required to inhibit all-trans-RA metabolism by 50 percent and are derived manually from log-transformed data.

psoriasis = details: treatment with liarozole; cited from earlier work

CC1=C(/C=C/C(C)=C/C=C/C(C)=C\C(=O)O)C(C)(C)CCC1 [13-cis RA]
skin irritation (skin): substantial skin irritation in humans

CN(C1CC1)C1CCC(C)(C)c2cc(C#Cc3ccc(CC(=O)O)cc3)ccc21 (stereo not shown) [Compound 8, 4-[(5-(Cyclopropyl-methyl-amino)-8,8-dimethyl-5,6,7,8-tetrahydro-naphthalene-2-yl-ethynyl)-phenyl]-acetic acid]
Kd (RARα): 10 µM | Cutaneous Toxicity Score (Blackjack Score) (skin of hairless mice; 100 nmole): 5 ± 2 | Cutaneous Toxicity Score (Blackjack Score) (skin of hairless mice; 300 nmole): 8 ± 3 | Cutaneous Toxicity Score (Blackjack Score) (skin of hairless mice; 1000 nmole): 12 ± 1 | (EFFICACY) RAR β (RARβ): 96%

CC1(C)CC(C)(C)c2cc(C#Cc3ccc(CC(=O)O)c(F)c3)cc(C3CC3)c2O1 [Compound 38, [4-(8-Cyclopropyl-2,2,4,4-tetramethyl-chroman-6-yl-ethynyl)-2-fluorophenyl]acetic acid]
Kd (RARα): 10 µM | Cutaneous Toxicity Score (Blackjack Score) (skin of hairless mice; 100 nmole): 1 ± 1 | Cutaneous Toxicity Score (Blackjack Score) (skin of hairless mice; 1000 nmole): 10 ± 1

Cc1cc(C#Cc2ccc(CC(=O)O)cc2)ccc1Cn1ccnc1 [Compound 121, [4-(4-Imidazol-1-yl-methyl-3-methyl-phenylethynyl)-phenyl]-acetic acid]
IC50 (P450RAI-1): 0.18 µM

CC1=C(/C=C/C(C)=C/C=C/C(C)=C/C(=O)O)C(C)(C)CCC1 [all-trans-retinoic acid]
skin irritation (skin): substantial skin irritation in humans

CCOC(=O)/C=C(C)/C=C/C=C(C)/C=C/c1c(C)cc(OC)c(C)c1C [etretinate]
skin irritation (skin): substantial skin irritation in humans

Clc1cccc(C(c2ccc3[nH]cnc3c2)n2ccnc2)c1 (stereo not shown) [liarozole]
retinoid-like effects, amelioration of psoriasis (psoriasis): effects similar to treatment by retinoids, for example amelioration of psoriasis
